Earlier results, collected in patent publication US7229642B2, “Amino acid modulated extended release dosage form” (Scolr, Inc., priority 1999, dated 2007).
Where two headings read alike, the source gives them in different places.

Conditions: for HYDROPHOBIC VALUE: hydropathy scale of Pliska et al., J. Chromatog. 216, 79, 1981, glycine = 0; for CHARACTERIZATION (hydropathy): hydropathy characteristic in words

Row | SMILES | HYDROPHOBIC VALUE | CHARACTERIZATION (hydropathy) | CHARACTERIZATION (hydropathy) (listed as glycine) | CHARACTERIZATION (hydropathy) (listed as iso-leucine)
1 | N[C@@H](CO)C(=O)O [Serine] | −0.63 | – | – | –
2 | N[C@@H](CC(=O)O)C(=O)O [Aspartic acid] | −2.15 | strongly hydrophilic | – | –
3 | N[C@@H](Cc1c[nH]c2ccccc12)C(=O)O [Tryptophan] | 1.35 | – | – | –
4 | NCCCC[C@H](N)C(=O)O [Lysine] | −1.54 | – | – | –
5 | NC(=O)C[C@H](N)C(=O)O [Asparagine] | −0.99 | – | – | –
6 | N[C@@H](CS)C(=O)O [Cysteine] | 0.76 | – | – | –
7 | C[C@@H](O)[C@H](N)C(=O)O [Threonine] | −0.27 | Weakly Hydrophilic | – | –

Continued, values first:

Row | HYDROPHOBIC VALUE | CHARACTERIZATION (hydropathy) | CHARACTERIZATION (hydropathy) (listed as glycine) | CHARACTERIZATION (hydropathy) (listed as iso-leucine) | SMILES
8 | 1.69 | – | – | – | N[C@@H](Cc1ccccc1)C(=O)O [Phenylalanine]
9 | 0 | Neutral, Balanced | neutral | – | NCC(=O)O [Glycine]
10 | 0.39 | Weakly Hydrophobic | – | – | N[C@@H](Cc1ccc(O)cc1)C(=O)O [Tyrosine]
11 | 1.10 | Moderately Hydrophobic | – | – | CSCC[C@H](N)C(=O)O [Methionine]
12 | 1.83 | Strongly Hydrophobic | – | strongly hydrophobic | CC[C@H](C)[C@H](N)C(=O)O [Isoleucine]
13 | 0.84 | – | – | – | O=C(O)[C@@H]1CCCN1 [Proline]
14 | 1.32 | – | – | – | CC(C)[C@H](N)C(=O)O [Valine]
15 | −0.65 | – | – | – | N[C@@H](Cc1c[nH]cn1)C(=O)O [Histidine]
16 | 0.35 | – | – | – | C[C@H](N)C(=O)O [Alanine]
